IC50 data for 27 compounds are collected here from patent publication US20250100993A1, “2-SUBSTITUTED THIAZOLE HSD17B13 INHIBITORS AND USES THEREOF” (Inipharm, Inc., priority 2022, published 2025).

The assay deals with HSD17B13 (Homo sapiens (Human), UniProt Q7Z5P4). Kind of assay: LC/MS estrone detection assay for HSD17B13 activity (estradiol to estrone). In kind it is biochemical. The conditions noted are these: estradiol substrate, LC-MS/MS estrone detection. The method, then: The liquid chromatography/mass spectrometry (LC/MS) estrone detection assay monitors the conversion of estradiol to estrone by HSD17B13. This assay was undertaken in a 96 wp format (Eppendorf deep well Plate 96/500) in an 80 μl reaction volume containing: 4 μM of Estradiol (E2; Cayman; Ser. No. 10/006,315), 6 mM NAD+(Sigma; #N0623) and 30 nM HSD17B13 enzyme (in-house; E. coli expressed His-tagged, purified, soluble protein) in a reaction containing 1M potassium phosphate buffer pH 7.4, with 0.5% vehicle (DMSO). Reactions were incubated for 2 hours at 26.5° C., and estradiol (E2) conversion to estrone (E1) was quantitated by LC-MS/MS based analyte detection for both E2 and E1 using LCMS grade reagents.
Chain of HSD17B13 (Q7Z5P4 20-300): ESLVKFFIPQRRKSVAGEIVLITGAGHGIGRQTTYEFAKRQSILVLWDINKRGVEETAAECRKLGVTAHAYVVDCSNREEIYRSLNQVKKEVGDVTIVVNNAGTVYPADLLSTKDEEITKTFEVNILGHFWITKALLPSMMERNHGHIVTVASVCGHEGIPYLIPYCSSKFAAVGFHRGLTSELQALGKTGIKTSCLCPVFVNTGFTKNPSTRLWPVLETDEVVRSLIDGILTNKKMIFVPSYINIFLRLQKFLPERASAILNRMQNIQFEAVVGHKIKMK
Reactions were terminated by the addition of two volumes of acetonitrile (MeCN; LCMS grade; CAS #75/05/8) containing deuterated (D4)-E1 used as internal standard (Clear Synth; #CS-T-54273; 500 ng/mL final concentration). Samples were applied to pre-prepared Bond Elut-C18 extraction cartridges (3 mL; Agilent; Ser. No. 12/102,028), washed and eluted in MeCN. Eluates were dried under nitrogen and re-suspended in 60% methanol (LCMS grade methanol; CAS #67/56/1) before submission for analysis. Aqueous linearity for E2 and E1 were included for quantification.
Analysis of samples was undertaken on a XBridge BEH C18 column (Waters; #186003033) using 0.1% Diethyl Amine in MeCN (mobile phase A; DEA CAS #109-89-7) and 0.1% Diethyl Amine in milli-Q water (mobile phase B) in a 3 min gradient allowing 25% B. Analytes were detected in negative mode using MRM analysis, with E2 having a RT of 1.85 min and E1 having a RT of 2 min. Activity of the enzyme, in the absence of NAD+, was used to evaluate specificity of conversion. Enzyme activity in the presence of test samples was expressed as a percentage of the uninhibited enzyme activity, and plotted versus inhibitor concentration. Non-linear regression was performed using a four-parameter logistic model and GraphPad Prism software (GraphPad Software, La Jolla, CA). All assessments were undertaken in duplicate evaluations and pooled during extraction process and subsequently injected as duplicates for LC-MS/MS analysis.
Broadly, the IC50 is the concentration needed to halve the response being measured. Low readings indicate inhibition by little substance, high ones a need for much substance. For `O=C(Nc1n[nH]cc1C(=O)NCc1ccccc1C(F)(F)F)c1cc(Cl)c(O)c(Cl)n1` [Example 1, 4,6-dichloro-5-hydroxy-N-(4-((2-(trifluoromethyl)benzyl)carbamoyl)-1H-pyrazol-3-yl)picolinamide], the IC50 is at most 100 nM. As for `Cn1cc(C(=O)NCc2ccccc2C(F)(F)F)c(NC(=O)c2cc(Cl)c(O)c(Cl)n2)n1` [Example 2, 4,6-dichloro-5-hydroxy-N-(1-methyl-4-((2-(trifluoromethyl)benzyl)carbamoyl)-1H-pyrazol-3-yl)picolinamide], the 50% inhibitory concentration (IC50) lay in the range of 100 to 500 nM. The figure for `O=C(Nc1n[nH]cc1C(=O)NCc1ccccc1C(F)(F)F)c1cc(Cl)c(O)c(Cl)c1` [Example 3, 3-(3,5-dichloro-4-hydroxybenzamido)-N-(2-(trifluoromethyl)benzyl)-1H-pyrazole-4-carboxamide] is at most 100 nM. Take `Cn1cc(NC(=O)c2cc(Cl)c(O)c(Cl)n2)c(C(=O)NCc2ccccc2OC(F)(F)F)n1` [Example 4, 4,6-dichloro-5-hydroxy-N-(1-methyl-3-((2-(trifluoromethoxy)benzyl)carbamoyl)-1H-pyrazol-4-yl)picolinamide]: the IC50 was 100 to 500 nM. The compound `Cn1ncc(NC(=O)c2cc(Cl)c(O)c(Cl)n2)c1C(=O)NCc1ccccc1OC(F)(F)F` [Example 5, 4,6-dichloro-5-hydroxy-N-(1-methyl-5-((2-(trifluoromethoxy)benzyl)carbamoyl)-1H-pyrazol-4-yl)picolinamide] gave an IC50 of 100 to 500 nM. As for `Cn1cc(C(=O)NCc2ccccc2C(F)(F)F)c(NC(=O)c2cc(Cl)c(O)c(Cl)c2)n1` [Example 6, 3-(3,5-dichloro-4-hydroxybenzamido)-1-methyl-N-(2-(trifluoromethyl)benzyl)-1H-pyrazole-4-carboxamide], the figure is 100 to 500 nM; as for `Cn1ncc(C(=O)NCc2ccccc2C(F)(F)F)c1NC(=O)c1cc(Cl)c(O)c(Cl)c1` [Example 7, 5-(3,5-dichloro-4-hydroxybenzamido)-1-methyl-N-(2-(trifluoromethyl)benzyl)-1H-pyrazole-4-carboxamide], 1000 to 10000 nM.

Turning to `O=C(Nc1nn(-c2ccccc2)cc1C(=O)NCc1ccccc1C(F)(F)F)c1cc(Cl)c(O)c(Cl)n1` [Example 8, 4,6-dichloro-5-hydroxy-N-(1-phenyl-4-((2-(trifluoromethyl)benzyl)carbamoyl)-1H-pyrazol-3-yl)picolinamide], the half-inhibitory concentration (IC50) lay within 100 to 500 nM.

For the compound `O=C(Nc1nn(-c2ccccc2)cc1C(=O)NCc1ccccc1C(F)(F)F)c1cc(Cl)c(O)c(Cl)c1` [Example 9, 3-(3,5-dichloro-4-hydroxybenzamido)-1-phenyl-N-(2-(trifluoromethyl)benzyl)-1H-pyrazole-4-carboxamide], the IC50 is at most 100 nM. The figure for `Cn1ncc(C(=O)NCc2ccccc2C(F)(F)F)c1NC(=O)c1cc(Cl)c(O)c(Cl)n1` [Example 10, 4,6-dichloro-5-hydroxy-N-(1-methyl-4-((2-(trifluoromethyl)benzyl)carbamoyl)-1H-pyrazol-5-yl)picolinamide] is 1000 to 10000 nM; for `Cc1ccc(NC(=O)c2cc(Cl)c(O)c(Cl)c2)c2c(=O)n(Cc3ccccc3C(F)(F)F)nnc12` [Example 11, 3,5-dichloro-4-hydroxy-N-(8-methyl-4-oxo-3-(2-(trifluoromethyl)benzyl)-3,4-dihydrobenzo[d][1,2,3]triazin-5-yl)benzamide] it is at most 100 nM. As for `Cc1ccc(NC(=O)c2cc(Cl)c(O)c(Cl)n2)c2c(=O)n(Cc3ccccc3C(F)(F)F)nnc12` [Example 12, 4,6-dichloro-5-hydroxy-N-(8-methyl-4-oxo-3-(2-(trifluoromethyl)benzyl)-3,4-dihydrobenzo[d][1,2,3]triazin-5-yl)picolinamide], the figure is 100 to 500 nM; as for `O=C(Nc1ccc(F)c2nnn(Cc3ccccc3C(F)(F)F)c(=O)c12)c1cc(Cl)c(O)c(Cl)n1` [Example 13, 4,6-dichloro-N-(8-fluoro-4-oxo-3-(2-(trifluoromethyl)benzyl)-3,4-dihydrobenzo[d][1,2,3]triazin-5-yl)-5-hydroxypicolinamide], 100 to 500 nM; as for `O=C(Nc1ccc(F)c2nnn(Cc3ccccc3C(F)(F)F)c(=O)c12)c1cc(Cl)c(O)c(Cl)c1` [Example 14, 3,5-dichloro-N-(8-fluoro-4-oxo-3-(2-(trifluoromethyl)benzyl)-3,4-dihydrobenzo[d][1,2,3]triazin-5-yl)-4-hydroxybenzamide], at most 100 nM. As to `Cc1nc2c(F)ccc(NC(=O)c3cc(Cl)c(O)c(Cl)n3)c2c(=O)n1[C@H]1CC[C@@H]1c1ccccc1` [Example 15, 4,6-dichloro-N-(8-fluoro-2-methyl-4-oxo-3-((1S,2R)-2-phenylcyclobutyl)-3,4-dihydroquinazolin-5-yl)-5-hydroxypicolinamide], the 50% inhibitory concentration (IC50) is 100 to 500 nM. Compound `Cc1nc2c(F)ccc(NC(=O)c3cc(Cl)c(O)c(Cl)c3)c2c(=O)n1[C@H]1CC[C@@H]1c1ccccc1` [Example 16, 3,5-dichloro-N-(8-fluoro-2-methyl-4-oxo-3-((1S,2R)-2-phenylcyclobutyl)-3,4-dihydroquinazolin-5-yl)-4-hydroxybenzamide] had an IC50 of at most 100 nM. `Cc1ccc(NC(=O)c2cc(Cl)c(O)c(Cl)c2)c2c(=O)n(C3CCC3c3ccccc3C(F)(F)F)c(C)nc12` (stereo not drawn) [Example 17, 3,5-dichloro-N-(2,8-dimethyl-4-oxo-3-(2-(2-(trifluoromethyl)phenyl)cyclobutyl)-3,4-dihydroquinazolin-5-yl)-4-hydroxybenzamide] displayed an IC50 of 100 to 500 nM. Compound `CCn1c(=O)n(Cc2ccccc2C(F)(F)F)c(=O)c2c(NC(=O)c3cc(Cl)c(O)c(Cl)n3)cccc21` [Example 18, 4,6-dichloro-N-(1-ethyl-2,4-dioxo-3-(2-(trifluoromethyl)benzyl)-1,2,3,4-tetrahydroquinazolin-5-yl)-5-hydroxypicolinamide] displayed an IC50 of 100 to 500 nM. Compound `Cn1c(=O)n(Cc2ccccc2C(F)(F)F)c(=O)c2c(NC(=O)c3cc(Cl)c(O)c(Cl)n3)ccc(F)c21` [Example 19, 4,6-dichloro-N-(8-fluoro-1-methyl-2,4-dioxo-3-(2-(trifluoromethyl)benzyl)-1,2,3,4-tetrahydroquinazolin-5-yl)-5-hydroxypicolinamide] had an IC50 of 100 to 500 nM.

Turning to `Cn1c(=O)n(Cc2ccccc2C(F)(F)F)c(=O)c2c(NC(=O)c3cc(Cl)c(O)c(Cl)n3)cccc21` [Example 20, 4,6-dichloro-5-hydroxy-N-(1-methyl-2,4-dioxo-3-(2-(trifluoromethyl)benzyl)-1,2,3,4-tetrahydroquinazolin-5-yl)picolinamide], the IC50 fell in the range of 100 to 500 nM.

The compound `Cc1nc(C(=O)NCc2ccccc2OC(F)(F)F)c(NC(=O)c2cc(Cl)c(O)c(Cl)c2)s1` [Example 21, 5-(3,5-dichloro-4-hydroxybenzamido)-2-methyl-N-(2-(trifluoromethoxy)benzyl)thiazole-4-carboxamide] showed an IC50 of 100 to 500 nM.

On to `Cc1nc(C(=O)NCc2ccccc2OC(F)(F)F)c(NC(=O)c2cc(Cl)c(O)c(Cl)n2)s1` [Example 22, 5-(4,6-dichloro-5-hydroxypicolinamido)-2-methyl-N-(2-(trifluoromethoxy)benzyl)thiazole-4-carboxamide], for which the IC50 fell in the range of 100 to 500 nM.

`O=C(Nc1sc(-c2ccccc2)nc1C(=O)NCc1ccccc1C(F)(F)F)c1cc(Cl)c(O)c(Cl)n1` [Example 23, 5-(4,6-dichloro-5-hydroxypicolinamido)-2-phenyl-N-(2 (trifluoromethyl)benzyl)thiazole-4-carboxamide] registered an IC50 of at most 100 nM.

Take `O=C(Nc1scnc1C(=O)NC1(c2ccccc2C(F)(F)F)CC1)c1cc(Cl)c(O)c(Cl)n1` [Example 24, 5-(4,6-dichloro-5-hydroxypicolinamido)-N-(1-(2-(trifluoromethyl)phenyl)cyclopropyl)thiazole-4-carboxamide]: the IC50 lay within 100 to 500 nM. Consider `CN(Cc1ccccc1C(F)(F)F)C(=O)c1ncsc1NC(=O)c1cc(Cl)c(O)c(Cl)n1` [Example 25, 5-(4,6-dichloro-5-hydroxypicolinamido)-N-methyl-N-(2-(trifluoromethyl)benzyl)thiazole-4-carboxamide], for which the 50% inhibitory concentration (IC50) lay in the range of 100 to 500 nM. The compound `Cc1nc(C(=O)NCc2ccccc2C(F)(F)F)c(NC(=O)c2cc(Cl)c(O)c(Cl)n2)s1` [Example 26, 5-(4,6-dichloro-5-hydroxypicolinamido)-2-methyl-N-(2-(trifluoromethyl)benzyl)thiazole-4-carboxamide] yielded an IC50 of 100 to 500 nM. In turn, `Cc1nc(C(=O)NCc2ccccc2C(F)(F)F)c(NC(=O)c2cc(Cl)c(O)c(Cl)c2)s1` [Example 27, 5-(3,5-dichloro-4-hydroxybenzamido)-2-methyl-N-(2-(trifluoromethyl)benzyl)thiazole-4-carboxamide] registered an IC50 of 100 to 500 nM.
